Results from US9573972B2, “Nurotoxic sterol glycosides” (priority 2008, dated 2017).

System: lumbar spinal cord α- and γ-motor neurons
Assay: Motor neuron counts (cresyl violet, Nissl), lumbar spinal cord
Format: in vivo, mouse
Experimental: Mice were sacrificed for histological analysis at 35 weeks (35.9-48.6 g) and 52 weeks (41.2-51.4 g) of age. Age-matched control mice from each time point were included for comparison. The mice were deeply anaesthetized in a chamber with 4% isoflurane and perfused intracardially with filtered PBS (pH 7.4) until the effluent was cleared of blood (2 minutes), followed by perfusion with cold (4° C.) 4% paraformaldehyde (PFA) in 0.1 M phosphate buffer (pH 7.4) for 5 minutes (30 mL). The PBS and the PFA were delivered through separate sterile platinum-cured silicon tubing (Cole-Parmer Canada Inc., Montreal, Canada) and peristaltic pumps (MasterFlex peristaltic pump, Cole-Parmer Canada Inc., Montreal, Canada). The brains and spinal cords were dissected out and fixed overnight at 4° C. and equilibrated in increasing concentrations of sucrose in phosphate-buffered saline, pH 7.4 (10, 20, and 25%) over a 3-day period. Complete equilibration of the tissues was taken as the moment the tissues sank to the bottom of the scintillation tubes filled with 25% sucrose. After equilibration, the spinal cord and brain specimens were set in molds (Tissue-tek Cryomold, Sakura Finetek, USA, Torrance, Calif.) with an optimum cutting temperature (OCT) gel-sucrose mixture frozen by immersion in an isopentane (BDH Laboratory Supplies, UK) bath on dry ice and stored at −80° C. until processing.
Cryosectioning of tissue: Frozen, coronal sections (spinal cord: 20 μm, brain: 30 μm) were cut with a Hacker-Bright cryostat (Hacker Instruments and Industries Inc., Winnsboro, S.C.) and mounted on charged glass slides (Superfrost Plus; Fisher Scientific, Pittsburgh, Pa.) so that adjacent CNS sections on each slide represented regions 100 μm and 150 μm apart for spinal cord and brain, respectively (Tabata et al., 2008). The slides were stored at −80° C. until histological processing. To ensure CNS sections were matched between animals, anatomical landmarks were verified using a mouse brain atlas (Paxinos and Franklin, The mouse brain in stereotaxic coordinates: Second Edition, K.B.J., Academic Press, New York, 2001).
Histology and quantification of motor neurons: Spinal cord and brain sections from each animal were stained for Nissl body substance. At room temperature (RT), sections were rinsed in a graded ethanol series (95%:15 min; 70%:1 min; 50%:1 min) to rehydrate and remove lipids and fixation chemicals from the tissue. The tissue were then rinsed for 2 min in two exchanges of distilled water, stained with twice-filtered cresyl violet stain (1.25 g cresyl violet acetate, 0.75 mL glacial acetic acid to 250 mL distilled water), rinsed in distilled water (1 minute), and then dehydrated (50% ethanol: 1 minute; 1% glacial acetic acid-70% ethanol: 2 minutes; 95% ethanol: 2 minutes; 95% ethanol: 3 dips; 100% ethanol: 1 minute) and cleared in xylene. The slides were then cover-slipped in Entellen mountant (Merck, Darmstadt, Germany). The tissue mounted slides were selected with a randomized start and sampled starting from the lumbar 2 region to the 6th. […] The boundaries for the ventral horn was determined by the margins of the gray matter for the lateral, medial and ventral boundaries as well as with the aid of an artificial line drawn laterally through the central canal. Both the left and right ventral horns from 12 sections from each animal were counted. Alpha-motor neurons and γ-motor neurons with and without apoptotic structural changes were counted using strict morphological and size criteria. Non-apoptotic α-neurons were considered as the following: Large, multipolar cells with a round, pale nucleus; visible nucleolus; globular Nissl body staining of the cytoplasm; and a diameter of 30-45 μm. In doing so, astrocytes, oligodendrocytes and microglia were excluded from the “α-motor neuron” counts (Martin, L. J. (1999) J Neuropathol Exp Neurol. 58, 459-71; Sepkuty, J. P., et al. (2002) J Neurosci. 22, 6372-9; Tabata et al., 2008). […]

[1] = SG-fed vs control, Time-point 1 (35 wk)
[2] = SG-fed vs control, Time-point 2 (52 wk)
[3] = SG-group over time (35 to 52 wk)

`CC[C@H](/C=C/[C@@H](C)[C@H]1CC[C@H]2[C@@H]3CC=C4C[C@@H](O[C@@H]5O[C@H](CO)[C@@H](O)[C@H](O)[C@H]5O)CC[C@]4(C)[C@H]3CC[C@]12C)C(C)C` [SG, Stigmasterol β-D-Glucopyranoside] was tested, and the “Chromatolytic α-MN” value [1] was “Chromatolytic α-MN (ns)”, the “Healthy α-MN per lumbar cord section” value [1] was “Healthy α-MN (ns)” and the “Pyknotic α-MN” value [1] was “Pyknotic α-MN (ns)”. For the same compound, the “Total γ-MN” value [1] was “Total γ-MN (ns)”, the “Chromatolytic α-MN” value [2] was “Chromatolytic α-MN (ns)” and the “Pyknotic α-MN” value [2] was “Pyknotic α-MN (ns)”. The “Total γ-MN” value [2] was “Total γ-MN (ns)”, the “Chromatolytic α-MN over time” value [3] was “(control group & SG-group independently over time) (ns)” and the “Pyknotic α-MN over time” value [3] was “(control group and SG-group independently over time) (ns)”. The “Total γ-MN over time” value [3] was “(control group and SG-group independently over time) (ns)”.
